Measurements published in patent publication US4865840A, “Topical compositions containing selenoamino acids for the prevention of ultraviolet radiation-induced skin damage” (priority 1987, dated 1989).

Tests used:
[1] = tested on: UV irradiated BALB-C mice (skin cancers); assay: clinically detectable skin tumors and mortality in UV irradiated and unirradiated BALB-C mice; type: in vivo, BALB-C female mice
Description: (§1) To determine the effectiveness of selenium supplementation in the form of topical application and oral administration of L-selenomethionine in providing protection for ultraviolet radiation-induced skin damage, 120 BALB-C female mice and 40 female Skh:2 hairless, pigmented, dark-eyed mice were obtained and separated into treatment groups as follows:
(§2) During the treatment, the BALB-C mice were shaved on the back one per week. 100 λ of a composition according to the invention in the form of an oil-in-water emulsion location containing 0.02% L-selenomethionine was applied three times a week to the backs and ears of the mice for a period of one week prior to beginning irradiation with ultraviolet light. The lotion carrier was formulated from an oil phase containing 21/2% polypropylene glycol-3-myristyl ether, 2% squalane, 0.5% safflower oil, 1% Myrj 52S emulsifier, 0.75% cetyl alcohol, 0.3% SPAN-60, 6.5% Amercol L101, 0.5% Lanocerin, 1% glyceral monostearate, 0.1% preservative, 1% Silicone 200, 1% stearic acid, and 0.5% isostearic acid; and an aqueous phase containing 68.5% distilled water, 0.75% triethanolamine, 5% propylene glycol, 0.3% preservative, 0.1% allantoin, 0.4% Germal II dissolved in 2% water, and 5% of Carbopol 941 (2.5% solution). Each 100 λ application of the composition penetrated the skin within a period of ten minutes. The composition continued to be applied thirty minutes before each thrice weekly irradiation.
(§3) Maintenance exposure times for the BALB-C mice was 50 minutes, while for the Skh:2 mice it was 15 minutes. Irradiation with four Westinghouse FS40 sunlamps was begun at 5 minute exposures, however, and increased by 5 minutes per session for the BALB-C mice and by 2.5 minutes per session for the Skh:2 mice until the respective maintenance exposure level for each type of mouse was reached. The maintenance dose of UV radiation for the BALB-C mice was 0.58 Joules/sq. cm./exposure and for the Skh:2 mice, 0.24 Joules/s. cm./exposure. This irradiation was continued for 28 weeks for the BALB-C mice (about 41 joules/sq. cm. total) and 24 weeks for the Skh:2 mice (about 15 joules/sq. cm. total).
(§4) To evaluate the effectiveness of the selenium supplementation in protecting against skin cancers and the relative merits of the claimed composition, the total number of clinically detectable skin cancers in each group was counted.
Tumors greater than 5 mm in size were also considered, but the observed results were inconclusive due to the complicating effect of mortality in irradiated/non-selenium supplemented mice.

[2] = tested on: pigmentation of Skh:2 mice; assay: Pigmentation of Skh:2 mice after exposure to UV-irradiation; type: in vivo; settings: for Pigmentation score: +4 = dark pigmentation, 0 = no pigmentation
Description: as §1, §2, §3
(§5) This is illustrated in Table 6, where the pigmentation of selenium supplemented mice is reduced.

[3] = in vivo; design: species or system BALBc mice; settings: mouse; for Liver Se / Ventral skin Se / dorsal skin Se: 6552 h
Description: as §1, §2, §3
(§6) After 12 weeks, 6 irradiated and 4 non-irradiated BALB-C mice were sacrificed, and at 39 weeks the remaining BALB-C mice were sacrificed. The liver and skin selenium levels were determined.

[4] = tissue Se in BALBC mice after 3 months; settings: mouse, in vivo; for concentration at 2190 h: tissue Se
Description: as §1, §2, §3, §6

[5] = design: species or system BALBC mice; settings: mouse, in vivo, po
Description: as §1
as §2, with “Each 100 λ application of the composition penetrated the skin within a period of ten minutes. The composition continued to be applied thirty minutes before each thrice weekly irradiation.” left out
(§7) Throughout the studies, the weights of the mice and the total feed and water intake were monitored.

[6] = toxicity in selenium treated mice (hepatic enzymes, alkaline phosphatase); type: in vivo
[7] = in vivo
[8] = tested on: UV irradiated Skh:2 mice (skin cancers); assay: clinically detectable skin tumors in UV irradiated Skh:2 mice; type: in vivo, female Skh:2 hairless, pigmented mice
Description: as §1
During the treatment, the BALB-C mice were shaved on the back one per week. 100 λ of a composition according to the invention in the form of an oil-in-water emulsion location containing 0.02% L-selenomethionine was applied three times a week to the backs and ears of the mice for a period of one week prior to beginning irradiation with ultraviolet light. […]
as §4

[9] = design: species or system KH2 (Skh:2) mice; settings: mouse, in vivo
Description: as §1
as §2, with “Each 100 λ application of the composition penetrated the skin within a period of ten minutes. The composition continued to be applied thirty minutes before each thrice weekly irradiation.” left out
as §7

[10] = tested on: superoxide dismutase; assay: hepatic activity of superoxide dismutase (SOD); type: in vivo, BALBc mice; settings: 39 weeks, pH 10.2
Procedure: (§8) Since selenium is a co-factor for a free-radical quenching enzyme, glutathione peroxidase, the level of two hepatic free-radical quenching enzymes, selenium dependent glutathione peroxidase and superoxide dismutase were also tested.
^1 SOD was measured by the inihibition of the spontaneous oxidation o
epinephrine at pH 10.2; 1 EU = 50% inhibition.

[11] = selenium levels in skin, plasma/serum and liver after topical application (general statement)
[12] = tested on: selenium dependent glutathione peroxidase; assay: hepatic activity of Se-dependent glutathione peroxidase (SeGSHpx); type: in vivo, BALBC mice; settings: for liver SeGSHpx: 3 months, mean ± SEM; for SeGSHpx: hepatic, 39 weeks
Description: as §1, §2, §3, §8

[13] = absorption into treated human skin; type: in vivo; settings: topical
Description: Topical application of selenoamino acid compositions in accordance with the invention provides a different type of protection than that afforded by conventional sunscreens, such as those containing p-amino benzoic acid, because the selenium is actually absorbed into treated human skin within a period of less than fifteen minutes. Thus, unlike a superficial sunscreen, the protective effect of the selenomethionine is not washed off by, e.g., swimming or sweating. Thus, frequent reapplication is not required to maintain protection, as is the case with known sunscreen products.

[14] = tested on: ultraviolet radiation-induced skin damage; assay: protection from UV radiation-induced skin damage (inflammation, i.e. sunburn; skin cancers); type: in vivo
Description: as §5

[15] = type: in vivo; settings: 100 λ of 0.02% L-selenomethionine oil-in-water lotion, mice
Description: as §2

[16] = topical; cited from earlier work
[17] = tested on: UV-induced skin cancer in hairless mice; settings: oral, cited from earlier work
[18] = unirradiated BALB-C, groups 4-6

C[Se]CC[C@H](N)C(=O)O [L-selenomethionine]
UV-induced mortality ([1]; irradiated BALB-C, groups 1-3, FIG. 3): clear reduction in UV-induced mortality
protection against skin cancers (tumors over 3 mm; animals with tumors) ([1]; irradiated BALB-C, topical and oral, FIGS. 1, 2): comparable protection against skin cancers
tumors greater than 5 mm ([1]; irradiated BALB-C, complicated by mortality of non-supplemented mice): inconclusive
deaths during the test period [1, 18]: none died
tumors observed during the experimental period [1, 18]: no tumors observed
Pigmentation score ([2]; oral, week 7, no selenium 3.3): 1.7
Pigmentation score ([2]; oral, week 12, no selenium 3.5): 2.5
Pigmentation score ([2]; oral, week 16, no selenium 3.6): 2.6
pigmentation ([2]; selenium supplemented mice, Table 6): reduced
Pigmentation score ([2]; topical, week 7, no selenium 3.3): 2.3
Pigmentation score ([2]; topical, week 12, no selenium 3.5): 2.7
Pigmentation score ([2]; topical, week 16, no selenium 3.6): 2.6
Liver Se ([3]; po): 1.674 ± .137 ppm
Ventral skin Se ([3]; po): .521 ± .018 ppm
dorsal skin Se ([3]; po): .432 ± .023 ppm
concentration at 6552 h ([3]; po, Liver Se): 1560 ± 84 ng/g
concentration at 6552 h ([3]; po, Ventral skin Se): 508 ± 26 ng/g
concentration at 6552 h ([3]; po, dorsal skin Se): 562 ± 40 ng/g
Liver Se ([3]; topical or ocular): 1.481 ± .156 ppm
Ventral skin Se ([3]; topical or ocular): .777 ± .069 ppm
dorsal skin Se ([3]; topical or ocular): 2.255 ± .582 ppm
concentration at 6552 h ([3]; topical or ocular, Liver Se): 1420 ± 150 ng/g
concentration at 6552 h ([3]; topical or ocular, Ventral skin Se): 843 ± 76 ng/g
concentration at 6552 h ([3]; topical or ocular, dorsal skin Se): 2010 ± 190 ng/g
selenium levels in the localized part of the skin treated [4]: preferential increase in selenium levels in the localized part of the skin actually treated
selenium levels in the treated skin [4]: substantially enhanced selenium levels in the treated skin
tissue Se, dorsal skin ([4]; po, 2190 h): .578 ± .061 g/g
tissue Se, ventral skin ([4]; po, 2190 h): .666 ± .046 g/g
concentration at 2190 h ([4]; po, dorsal skin): 913 ± 74 ng/g
concentration at 2190 h ([4]; po, liver): 1600 ± 186 ng/g
concentration at 2190 h ([4]; po, ventral skin): 728 ± 28 ng/g
concentration at 2190 h ([4]; topical or ocular, dorsal skin): 4520 ± 568 ng/g
concentration at 2190 h ([4]; topical or ocular, liver): 2240 ± 353 ng/g
concentration at 2190 h ([4]; topical or ocular, ventral skin): 1860 ± 193 ng/g
effect on feeding habits [5]: little effect on the feeding habits of the mice
toxicity [6]: no evidence of toxicity
selenium concentration in the skin in the area of application [7]: higher than that attained using a comparable oral dosage of selenium
selenium levels in the plasma and liver [7]: enhanced levels of selenium in the plasma and liver
selenium levels in the skin [7]: significantly enhanced levels of selenium in the skin
selenium levels in untreated skin, serum and liver [7]: comparable to those in animal receiving oral doses of selenium
protection against skin cancers (tumors over 3 mm; animals with tumors) ([8]; irradiated Skh:2, topical and oral, FIGS. 4, 5): comparable protection against skin cancers
observations based upon 5 mm tumors ([8]; irradiated Skh:2, control mortality a complicating factor): superior in the selenium-supplemented mice
Feed Intake [9]: 496.5 ± 31.1 g/mouse
Water Intake [9]: 594.6 ± 43.0 g/mouse
SOD ([10]; UV +, d.water, n = 20, 1 EU = 50% inhibition of epinephrine oxidation): 243 ± 67 EU/g
SOD ([10]; UV +, topical, n = 13, 1 EU = 50% inhibition of epinephrine oxidation): 181 ± 51 EU/g
SOD ([10]; UV -, d.water, n = 4, 1 EU = 50% inhibition of epinephrine oxidation): 109 ± 43 EU/g
SOD ([10]; UV -, topical, n = 4, 1 EU = 50% inhibition of epinephrine oxidation): 88 ± 34 EU/g
toxicity [11]: without toxicity
liver SeGSHpx ([12]; UV +, drinking water, n = 6): 125.69 ± 14.59 nmoles NADPH/min/mg
liver SeGSHpx ([12]; UV +, topical, n = 6): 124.15 ± 10.51 nmoles NADPH/min/mg
liver SeGSHpx ([12]; UV -, drinking water, n = 4): 141.49 ± 18.71 nmoles NADPH/min/mg
liver SeGSHpx ([12]; UV -, topical, n = 4): 160.18 ± 17.36 nmoles NADPH/min/mg
SeGSHpx ([12]; UV +, d.water, n = 20): 114.91 ± 12.20 nmoles NADPH/mg-min
SeGSHpx ([12]; UV +, topical, n = 13): 85.97 ± 9.92 nmoles NADPH/mg-min
SeGSHpx ([12]; UV -, d.water, n = 4): 57.98 ± 10.82 nmoles NADPH/mg-min
SeGSHpx ([12]; UV -, topical, n = 4): 83.30 ± 20.83 nmoles NADPH/mg-min
time in which selenium is absorbed into treated human skin [13]: less than fifteen
protection against less severe UV radiation-induced damage (inflammation i.e. sunburn and pigmentation) ([14]; topical): observed to protect the skin against less severe types of ultraviolet radiation-induced damage such as inflammation i.e. sunburn and pigmentation
incidence of skin cancers following exposure to ultraviolet radiation ([14]; topical application): significantly reduce the incidence of skin cancers
time in which the composition penetrated the skin [15]: ten

S=[Se]=S [Selenium sulfide, selenium sulfide]
skin penetration / selenium levels in the serum or liver [16]: does not penetrate the skin to give increased levels of selenium in the serum or liver

O=[Se](O)O [sodium selenite]
animal growth rate ([17]; decreased weight gain relative to controls): moderate inhibition of animal growth rate
protection against UV-induced skin cancer [17]: dose-dependent selenium protection against UV-induced skin cancer
resistance to acute and sub-acute effects of UV radiation (inflammation and pigmentation) [17]: more resistant to the acute and sub-acute effects of UV radiation
